Results as given in patent US6780431B1, “Substituted benzylthiazolidine-2,4-dione derivatives” (Kyorin Pharmaceutical Co., Ltd., priority 1999, dated 2004).
Where two headings read alike, the source gives them in different places.

Tests used:
[1] = biological target: T1, human PPARγ ligand-binding domain fused with yeast transcription factor DNA-binding domain (Homo sapiens, UniProt P37231); assay: Test of transactivation on PPARγ (CHO cells, reporter plasmid, CAT activity)
T1 sequence (P37231 238-503 limits assumed): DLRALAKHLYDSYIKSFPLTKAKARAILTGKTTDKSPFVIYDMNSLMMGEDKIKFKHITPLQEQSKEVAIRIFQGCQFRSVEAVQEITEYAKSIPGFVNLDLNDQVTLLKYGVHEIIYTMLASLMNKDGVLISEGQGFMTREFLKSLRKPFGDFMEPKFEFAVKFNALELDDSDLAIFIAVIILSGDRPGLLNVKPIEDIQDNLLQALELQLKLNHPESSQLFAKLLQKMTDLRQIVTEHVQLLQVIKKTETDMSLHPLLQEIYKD
Procedure: (§1) Test of Transactivation on Peroxisome Proliferator-activated Receptors α and β
(§2) After 24 hours, CAT activity and β-galactosidase activity were measured.

[2] = biological target: T2, human type PPARα ligand-binding domain fused with yeast transcription factor DNA-binding domain (Homo sapiens, UniProt Q07869); assay: Test of transactivation on PPARα (CHO cells, reporter plasmid, CAT activity)
T2 sequence (Q07869 239-466 limits assumed): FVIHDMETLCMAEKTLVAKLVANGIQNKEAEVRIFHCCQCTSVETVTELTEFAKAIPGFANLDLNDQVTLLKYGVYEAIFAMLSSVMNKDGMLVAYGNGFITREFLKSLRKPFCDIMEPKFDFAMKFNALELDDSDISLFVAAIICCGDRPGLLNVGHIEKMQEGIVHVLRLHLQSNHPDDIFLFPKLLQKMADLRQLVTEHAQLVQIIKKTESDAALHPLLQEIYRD
Procedure: as §1, §2

EC50 [1] [nM] | EC50 [2] [nM] | melting point [°C] | EC50 ([2]; read-out: Transactivation PPARα EC50, CHO cells, 24 hours, CAT activity with β-galactosidase internal standard) [nM] | Compound
280 | 220 |  |  | COc1ccc(CC2SC(=O)NC2=O)cc1C(=O)NCc1ccc(Cl)cc1Cl (stereo not drawn) [Example 8]
300 | 430 | 130 to 132 |  | CCOc1ccc(CNC(=O)c2cc(CC3SC(=O)NC3=O)ccc2OC)cc1 (stereo not drawn) [Example 5]
1100 | 700 |  |  | COc1ccc(CC2SC(=O)NC2=O)cc1C(=O)NCc1ccc(Cl)c(Cl)c1 (stereo not drawn) [Example 9]
1800 | 110 |  |  | CCCOc1ccc(CNC(=O)c2cc(CC3SC(=O)NC3=O)ccc2OC)cc1 (stereo not drawn) [Example 7]
 |  | 181 to 182 |  | COc1ccc(CC2SC(=O)NC2=O)cc1C(=O)NCc1ccc(Cl)c(Cl)c1 (stereo not drawn) (hydrate or solvate) [Example 9]
290 | 490 | 198 to 200 |  | COc1ccc(CC2SC(=O)NC2=O)cc1C(=O)NCc1ccc(Br)cc1 (stereo not drawn) [Example 2]
 |  | 132 to 133 |  | CCCOc1ccc(CNC(=O)c2cc(CC3SC(=O)NC3=O)ccc2OC)cc1 (stereo not drawn) (hydrate or solvate) [Example 7]
 |  | 188 to 189 |  | COc1ccc(CC2SC(=O)NC2=O)cc1C(=O)NCc1ccc(Cl)cc1Cl (stereo not drawn) (hydrate or solvate) [Example 8]
1600 | 530 | 236.5 to 238.5 |  | COc1ccc(CC2SC(=O)NC2=O)cc1C(=O)NCc1ccc([N+](=O)[O-])cc1 (stereo not drawn) [Example 1, N-[(4-Nitrophenyl)methyl]-5-[(2,4-dioxothiazolidin-5-yl)methyl]-2-methoxybenzamide]
400 | 260 | 199 to 201 |  | COc1ccc(CC2SC(=O)NC2=O)cc1C(=O)NCc1ccc(Cl)cc1 (stereo not drawn) [Example 3]
 |  |  | 1300 | CCCCC/C=C\C/C=C\C=C\[C@@H](O)C/C=C\CCCC(=O)O [(8S)-HETE, reference compound]
110 | 760 |  |  | COc1ccc(CC2SC(=O)NC2=O)cc1C(=O)NCc1ccc(OC(C)C)cc1 (stereo not drawn) [Example 6]
 |  | 79 to 81.5 |  | COc1ccc(CC2SC(=O)NC2=O)cc1C(=O)NCc1ccc(OC(C)C)cc1 (stereo not drawn) (hydrate or solvate) [Example 6]
360 | 180 |  |  | COc1ccc(CC2SC(=O)NC2=O)cc1C(=O)NCc1cccc(OC(F)(F)F)c1 (stereo not drawn) [Example 4]
